Laboratory results from article PMC10934653, “Identification of Hypoglycemic Glycolipids from Ipomoea murucoides by Affinity-Directed Fractionation, In Vitro, In Silico and Dynamic Light Scattering Analysis” (Plants, 2024).
Converted amounts (≈) assume the structure as drawn.

Molecular target: T1, hepatic glucose-6-phosphatase (G6Pase)
T1 construct: gene G6pc1; native, microsomal fraction from livers of starved Wistar rats; not purified; with Glucose-6-phosphate exchanger SLC37A4
Assay: colorimetric phosphate release assay, rat liver microsomes
Assay type: biochemical
Conditions: 80 mM glucose-6-phosphate, 40 mM imidazole, 250 mM sucrose, pH 7, 20 °C, 20 min; positive control

IC50: 122.5 µg/mL (≈ 346 µM)
Structure (SMILES): O=C(/C=C/c1ccc(O)c(O)c1)O[C@@H]1C[C@](O)(C(=O)O)C[C@@H](O)[C@H]1O [chlorogenic acid]
